Source: patent publication US10442763B2, “EBNA1 inhibitors and methods using same” (priority 2015, dated 2019)

Target: T1, His-EBNA1 (DNA binding domain of EBNA1, amino acids 459-607) (Epstein-Barr virus, UniProt P03211)
T1 construct: made in house; host or cells: E. coli
Test: Inhibition of 5'-biotin-oPL4624 binding to His-EBNA1 using Alpha Screen technology
Experimental: Inhibition of 5′-Biotin-oPL4624 Binding to his-EBNA1 Using Alpha Screen Technology
Assays were performed using the DNA binding domain of EBNA1 (amino acids 459-607), which was His-tagged (His-EBNA1) and the self-complementary biotinylated (bt) oligonucleotide with the sequence 5′-bt-[…]-ATGCTACCC-3′ (bt-oPL4624; or 5′-bt-SEQ ID NO: 1). The protein was expressed in E. coli and purified according to Barwell, et al., 1995, J Biol Chem. 270:20556-9.). The bt-oPL4624 oligonucleotide was purchased from Integrated DNA Technologies, Inc (IDT). AlphaScreen donor, acceptor beads and white, opaque 384-well assay plates were purchased from PerkinElmer, Inc.
Assays contained 15 nM His-EBNA1, 0.2 nM bt-oPL4624, 5 μg/mL AlphaScreen streptavidin donor beads and nickel chelate acceptor beads, and a series of concentrations of test compound ranging from 3.2 nM to 100 μM in a total volume of 40 μL assay buffer (25 mM Tris, pH 7.2, 160 mM NaCl, 1 mM MgCl2). His-EBNA1 (30 nM) and bt-oPL4624 (0.4 nM) were preincubated with 10 μg/mL nickel chelate AlphaScreen acceptor bead, or 10 μg/mL streptavidin AlphaScreen donor bead, respectively, for 30 minutes at room temperature in assay buffer. Twenty microliters of His-EBNA1/acceptor bead mix and bt-oPL4624/donor bead mix were transferred to assay plates containing 0.4 μL of 1:3 serial dilutions of test compounds previously prepared in DMSO at concentrations ranging from 0.32 μM to 10 mM. Non-specific binding was determined with 5 μg/mL AlphaScreen acceptor bead in the absence of His-EBNA1. After 2 hr incubation at room temperature, the AlphaScreen signal was measured on the Envision plate reader (PerkinElmer, Inc.) at 680 nm excitation and 570 nm emission. Inhibition values at each concentration of test compound were determined by setting 100% equal to raw data values in the absence of EBNA1 and 0% equal to the raw data values in the presence of EBNA1. Nonlinear regression fits of the inhibition values to a one-site dose-response equation were performed using GraphPad Prism.

T1 sequence (P03211 459-607): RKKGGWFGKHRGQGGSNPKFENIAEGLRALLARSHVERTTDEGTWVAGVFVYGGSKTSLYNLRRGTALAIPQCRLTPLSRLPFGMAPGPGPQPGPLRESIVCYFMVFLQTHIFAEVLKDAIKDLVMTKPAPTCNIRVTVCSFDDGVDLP

SMILES | IC50
O=C(O)c1cccc(C#Cc2ccc3ccn(CCN4CCOCC4)c3c2)c1-c1ccc2cc[nH]c2c1 [Entry 1] | 10 to 100 µM
CC(=O)Nc1cc(C#Cc2cccc(C(=O)O)c2-c2ccc3cc[nH]c3c2)ccc1OC1CCOCC1 [Entry 2] | 10 to 100 µM
CC(=O)N1C2CCC1CC(c1ccc(C#Cc3cccc(C(=O)O)c3-c3ccc4cc[nH]c4c3)cc1)C2 (stereo not drawn) [Entry 3] | 10 to 100 µM
CN(C)CCn1ccc2cc(C#Cc3cccc(C(=O)O)c3-c3ccc4cc[nH]c4c3)cnc21 [Entry 4] | 1 to 10 µM
CN(C)CCCn1ccc2cc(C#Cc3cccc(C(=O)O)c3-c3ccc4cc[nH]c4c3)cnc21 [Entry 5] | 10 to 100 µM
O=C(O)c1cccc(C#Cc2cnc3c(ccn3CCCN3CCOCC3)c2)c1-c1ccc2cc[nH]c2c1 [Entry 6] | 1 to 10 µM
O=C(O)c1cccc(C#Cc2cn(CCCN3CCOCC3)c3ncccc23)c1-c1ccc2cc[nH]c2c1 [Entry 7] | 10 to 100 µM
O=C(O)c1cccc(C#Cc2cnc3c(ccn3CCN3CCOCC3)c2)c1-c1ccc2cc[nH]c2c1 [Entry 8] | 1 to 10 µM
O=C(O)c1cccc(C#Cc2cn(CCN3CCOCC3)c3ncccc23)c1-c1ccc2cc[nH]c2c1 [Entry 10] | 10 to 100 µM
CN(C)CCCn1cc(C#Cc2cccc(C(=O)O)c2-c2ccc3cc[nH]c3c2)c2cccnc21 [Entry 11] | 100 to 1000 µM
O=C(O)c1cccc(C#Cc2cnc3c(ccn3CCN3CCS(=O)(=O)CC3)c2)c1-c1ccc2cc[nH]c2c1 [Entry 12] | 10 to 100 µM
O=C(O)c1cccc(C#Cc2ccc3c(ccn3CCN3CCOCC3)c2)c1-c1ccc2cc[nH]c2c1 [Entry 13] | 10 to 100 µM
O=C(O)c1cccc(C#Cc2ccc3c(ccn3CCCN3CCOCC3)c2)c1-c1ccc2cc[nH]c2c1 [Entry 14] | 10 to 100 µM
O=C(O)c1cccc(C#Cc2ccc3ccn(CCCN4CCOCC4)c3c2)c1-c1ccc2cc[nH]c2c1 [Entry 15] | 10 to 100 µM
O=C(O)c1cccc(C#Cc2cnc3c(c2)CCCN3)c1-c1ccc2cc[nH]c2c1 [Entry 16] | 1 to 10 µM
O=C(O)c1cccc(C#Cc2cnc3c(ccn3CC3CCOCC3)c2)c1-c1ccc2cc[nH]c2c1 [Entry 17] | 1 to 10 µM
O=C(O)c1cccc(C#Cc2ccc3c(ccn3CC3CCOCC3)c2)c1-c1ccc2cc[nH]c2c1 [Entry 18] | 1 to 10 µM
CS(=O)(=O)N1CCC(Cn2ccc3cc(C#Cc4cccc(C(=O)O)c4-c4ccc5cc[nH]c5c4)ccc32)CC1 [Entry 19] | 1 to 10 µM
CS(=O)(=O)N1CCC(Cn2ccc3cc(C#Cc4cccc(C(=O)O)c4-c4ccc5cc[nH]c5c4)cnc32)CC1 [Entry 20] | 1 to 10 µM
O=C(O)c1cccc(C#Cc2cnc3c(ccn3CC3CCS(=O)(=O)CC3)c2)c1-c1ccc2cc[nH]c2c1 [Entry 21] | 1 to 10 µM
O=C(O)c1cccc(C#Cc2ccc3c(ccn3CCN3CCS(=O)(=O)CC3)c2)c1-c1ccc2cc[nH]c2c1 [Entry 22] | 1 to 10 µM
O=C(O)c1cccc(C#Cc2ccc3ccn(CCN4CCS(=O)(=O)CC4)c3c2)c1-c1ccc2cc[nH]c2c1 [Entry 23] | 10 to 100 µM
O=C(O)c1cccc(C#Cc2ccc3c(ccn3CCCN3CCS(=O)(=O)CC3)c2)c1-c1ccc2cc[nH]c2c1 [Entry 24] | 10 to 100 µM
O=C(O)c1cccc(C#Cc2ccc3ccn(CCCN4CCS(=O)(=O)CC4)c3c2)c1-c1ccc2cc[nH]c2c1 [Entry 25] | 1 to 10 µM
O=C(O)c1cccc(C#Cc2ccc(COC3CCS(=O)(=O)CC3)cc2)c1-c1ccc2cc[nH]c2c1 [Entry 26] | 10 to 100 µM
O=C(O)c1cccc(C#Cc2ccc(COC3CCOCC3)cc2)c1-c1ccc2cc[nH]c2c1 [Entry 27] | 10 to 100 µM
CC(C)OCc1ccc(C#Cc2cccc(C(=O)O)c2-c2ccc3cc[nH]c3c2)cc1 [Entry 28] | 1 to 10 µM

SMILES | IC50
O=C(O)c1cccc(C#Cc2ccc(OC3CC[S+]([O-])CC3)cc2)c1-c1ccc2cc[nH]c2c1 (stereo not drawn) [Entry 29] | 10 to 100 µM
O=C(O)c1cccc(C#Cc2ccc3c(CN4CCOCC4)c[nH]c3c2)c1-c1ccc2cc[nH]c2c1 [Entry 30] | 10 to 100 µM
CS(=O)(=O)N1CCN(Cc2c[nH]c3cc(C#Cc4cccc(C(=O)O)c4-c4ccc5cc[nH]c5c4)ccc23)CC1 [Entry 31] | 1 to 10 µM
O=C(O)c1cccc(C#Cc2ccc3c(CN4CCS(=O)(=O)CC4)c[nH]c3c2)c1-c1ccc2cc[nH]c2c1 [Entry 32] | 1 to 10 µM
O=C(O)c1cccc(C#Cc2ccc3cc(CN4CCOCC4)[nH]c3c2)c1-c1ccc2cc[nH]c2c1 [Entry 33] | 10 to 100 µM
O=C(O)c1cccc(C#Cc2ccc3cc(CN4CCS(=O)(=O)CC4)[nH]c3c2)c1-c1ccc2cc[nH]c2c1 [Entry 34] | 1 to 10 µM
O=C(O)c1cccc(C#Cc2cc3ccn(CC4CCOCC4)c3cc2F)c1-c1ccc2cc[nH]c2c1 [Entry 35] | 1 to 10 µM
O=C(O)c1cccc(C#Cc2ccc3ccn(CC4CCOCC4)c3c2F)c1-c1ccc2cc[nH]c2c1 [Entry 36] | 1 to 10 µM
O=C(O)c1cccc(C#Cc2ccc3ccn(CC4CCS(=O)(=O)CC4)c3c2F)c1-c1ccc2cc[nH]c2c1 [Entry 37] | 1 to 10 µM
O=C(O)c1cccc(C#Cc2cc3ccn(CC4CCS(=O)(=O)CC4)c3cc2F)c1-c1ccc2cc[nH]c2c1 [Entry 38] | 1 to 10 µM
O=C(O)c1cccc(C#Cc2ccc3c(CN4CCOCC4)c[nH]c3c2F)c1-c1ccc2cc[nH]c2c1 [Entry 39] | 1 to 10 µM
O=C(O)c1cccc(C#Cc2cc3c(CN4CCOCC4)c[nH]c3cc2F)c1-c1ccc2cc[nH]c2c1 [Entry 40] | 10 to 100 µM
O=C(O)c1cccc(C#Cc2ccc(-c3nn[nH]n3)cc2)c1-c1ccc2cc[nH]c2c1 [Entry 41] | < 1 µM
O=C(O)c1cccc(C#Cc2cccc(-c3nn[nH]n3)c2)c1-c1ccc2cc[nH]c2c1 [Entry 42] | < 1 µM
O=C(O)c1cccc(C#Cc2ccc(-c3cnco3)cc2)c1-c1ccc2cc[nH]c2c1 [Entry 43] | 1 to 10 µM
O=C(O)c1cccc(C#Cc2ccc(-c3ccc(=O)[nH]n3)cc2)c1-c1ccc2cc[nH]c2c1 [Entry 44] | 1 to 10 µM
COc1cc(C#Cc2cccc(C(=O)O)c2-c2ccc3cc[nH]c3c2)ccc1CN1CCOCC1 [Entry 45] | 10 to 100 µM
O=C(O)c1cccc(C#Cc2ccc(C(=O)N3CCOCC3)c(O)c2)c1-c1ccc2cc[nH]c2c1 [Entry 46] | 10 to 100 µM
COc1cc(C#Cc2cccc(C(=O)O)c2-c2ccc3cc[nH]c3c2)ccc1CN1CCC(N2CCOCC2)CC1 [Entry 47] | 100 to 1000 µM
COc1cc(C#Cc2cccc(C(=O)O)c2-c2ccc3cc[nH]c3c2)ccc1CN1CCC(F)(F)CC1 [Entry 48] | 1 to 10 µM
O=C(O)c1cccc(C#Cc2ccc(C(=O)N3CCC(N4CCOCC4)CC3)c(O)c2)c1-c1ccc2cc[nH]c2c1 [Entry 50] | 1 to 10 µM
O=C(O)c1cccc(C#Cc2ccc(C(=O)N3CCC(F)(F)CC3)c(O)c2)c1-c1ccc2cc[nH]c2c1 [Entry 51] | 1 to 10 µM
CS(=O)(=O)N1CCC(Cc2ccc(C#Cc3cccc(C(=O)O)c3-c3ccc4cc[nH]c4c3)cc2)CC1 [Entry 52] | 1 to 10 µM
O=C(O)c1cccc(C#Cc2ccc(CC3CCN(S(=O)(=O)C(F)(F)F)CC3)cc2)c1-c1ccc2cc[nH]c2c1 [Entry 53] | 1 to 10 µM
CC(C)S(=O)(=O)N1CCC(Cc2ccc(C#Cc3cccc(C(=O)O)c3-c3ccc4cc[nH]c4c3)cc2)CC1 [Entry 54] | 1 to 10 µM
CC(=O)N1CCC(Cc2ccc(C#Cc3cccc(C(=O)O)c3-c3ccc4cc[nH]c4c3)cc2)CC1 [Entry 55] | 1 to 10 µM
CC(=O)N1Cc2ccc(C#Cc3cccc(C(=O)O)c3-c3ccc4cc[nH]c4c3)cc2C1 [Entry 56] | 1 to 10 µM
